Test: Human HepG2 cell viability assay in 384 well format
Assay type: toxicity, cell-based
Parameters: dose 125 nL, time 70.5 hour; concentration not given beside the values
Details: HepG2 cells, read-out: Inhibition

| Structure (SMILES) | cytotoxicity at 70.5 h [%] |
| --- | --- |
| O=c1ccc2c(n1Cc1ccncc1)CCN(C1CCOC1)CC2 (stereo unspecified) | 0.608 |
| CC(C)NC(=O)N1CCC(c2nnc3ccc(C(=O)N(C)C)cn23)C1 (stereo unspecified) | -1.02 |
| CN1CCCN(C(=O)c2nc3c(s2)CCCN3CC2CC2)CC1 | -1.89 |
| O=C(c1cc(-c2ccn(CC3CC3)n2)n2ccccc12)N1CCCO1 | -3.08 |
| O=C(NC1CCCC1)c1nc2c(o1)CN(C(=O)CO)C2 | -1.18 |
| c1cc(-c2nnn3c2COC(CNCC2CCOCC2)C3)ccn1 (stereo unspecified) | 32.3 |
| O=C(C1CN(CC2CC2)CC12CCOCC2)N1CCCC1 (stereo unspecified) | 16.3 |
| O=C(c1ccsc1)N1CCc2onc(CN3CCOCC3)c2C1 | -4.87 |
| O=C1[C@@H]2CCN(CC3CC3)C[C@@H]2OCCN1c1ccsc1 | -2.56 |
| COCCN1CCC2(CC1)CC(CC(N)=O)c1ccc(F)cc12 (stereo unspecified) | 1.63 |
| c1cc(CNCC2Cn3nncc3CO2)ccn1 (stereo unspecified) | -5.93 |
| CNC(=O)c1cnc2n1CCN(C(=O)Cc1ccccn1)C2 | -13.8 |
| CC(C)N1c2sc(-c3ccccc3)nc2CC1C(=O)NCCCO (stereo unspecified) | -5.59 |
| CCS(=O)(=O)N1CC[C@@H]2[C@H](COCC3CC3)CN(C)C(=O)[C@@H]2CC1 | -5.95 |
| c1cc(CNCC2Cn3nncc3CO2)cs1 (stereo unspecified) | -6.68 |
| CC(C)N1c2sc(-c3ccccc3)nc2CC1C(=O)NC1CCCC1 (stereo unspecified) | -6.93 |
| CC(C)N1c2sc(-c3ccsc3)nc2CC1C(=O)NC1CC1 (stereo unspecified) | -5.25 |
| COCc1nc2c(o1)CN(C(=O)NCc1ccccc1)C2 | -12.9 |
| CCOc1cc(=O)n2c(c1C(=O)OCc1ccc(OC)cc1)CCCC2 | -14.9 |
| Cc1noc(C2CCCCN2C(=O)NCc2ccco2)n1 (stereo unspecified) | -19.9 |
| CNC(=O)C1CCN(c2nc3nc[nH]c(=O)c3s2)CC1 | -16.7 |
| COc1cc(C(=O)NC(C)C)nc2c(C)cc(F)cc12 | 23.4 |
| COc1cc(C(=O)NCC2CC2)nc2c(C)cc(F)cc12 | -4.75 |

| Structure (SMILES) | cytotoxicity at 70.5 h [%] |
| --- | --- |
| COc1cc(C(=O)NCC2CCCO2)nc2c(C)cc(F)cc12 (stereo unspecified) | -25.4 |
| CCc1c(C(=O)O)nnn1-c1cc(C)cc(C)c1 | -18.5 |
| CN(C)CCCNC(=O)c1cc(Cl)ccc1Cl | -14.5 |
| CN(C)CCCNC(=O)c1ccccc1NC(=O)c1ccccc1Cl | 22.1 |
| O=C(CCn1ccc2ccc(F)cc21)/N=c1\[nH]nc(C2CCCO2)s1 (stereo unspecified) | -20.2 |
| CC(CO)NC(=O)c1ccc2[nH]/c(=N\S(C)(=O)=O)sc2c1 (stereo unspecified) | -3.5 |
| CSCCC(CO)NC(=O)c1ccc2[nH]/c(=N\S(C)(=O)=O)sc2c1 (stereo unspecified) | -13.7 |
| Cc1ccccc1COCCOCn1c(C)cc(=O)[nH]c1=O | -4.1 |
| Cc1noc2nc3c(c(C(=O)/N=c4\[nH]nc(C(C)C)s4)c12)CCC3 | -12.5 |
| COc1ccc(NC(=O)CSc2ccc3nncn3n2)c(OC)c1 | -15.9 |
| Cc1nn(C)c2nc3c(c(C(=O)/N=c4\[nH]nc(C(C)C)s4)c12)CCC3 | -18.8 |
| COc1ccc(NC(=O)CCSc2ccc3nncn3n2)c(OC)c1 | -11.8 |
| COc1cc2[nH]c(C(=O)O)cc2c(OC)c1C | -5.57 |
| CCOc1cc(-c2cc(=O)n3c(n2)CCCCC3)ccc1O | -20.5 |
| CSc1ccc(-n2nnc(C(=O)O)c2-c2ccccn2)cc1 | 11.2 |
| CC(C)c1ccc(-n2nnc(C(=O)O)c2-c2ccccn2)cc1 | -24.1 |
| Cc1ccc(S(=O)(=O)NC2=NCN(CCc3cccs3)CN2)cc1 | -14.3 |
| O=S(=O)(NC1=NCN(CCc2cccs2)CN1)c1ccc(Br)cc1 | -18.9 |
| CC(C)Cn1c(=O)nc2n1C(=O)N(c1ccc(F)cc1)C2 | -25.8 |
| O=C1CC(c2ccc(C(F)(F)F)cc2)c2c(n3ccsc3nc2=O)N1 (stereo unspecified) | -22.1 |
| CC(C)c1nnc2ccc(N3CCC(C(=O)O)CC3)nn12 | -25.9 |
| CNc1oc(-c2ccc(OC)c(S(=O)(=O)N3CCCC3)c2)nc1C#N | -21.8 |
| NC(=O)C1CCN(C(=O)CCn2ccc3ccc(F)cc32)CC1 | -6.99 |

| Structure (SMILES) | cytotoxicity at 70.5 h [%] |
| --- | --- |
| Cc1c(C)n(-c2ccccn2)c2nc3c(c(N)c12)CCCCC3 | -10.8 |
| O=c1ccc(-c2cccs2)nn1CN1CCOC(c2ccccc2)C1 (stereo unspecified) | -21.3 |
| O=c1ccc(-c2cccs2)nn1CN1CCN(c2ccccn2)CC1 | -23.6 |
| O=C1CC(c2ccc(Cl)c(Cl)c2)c2c(n3ccsc3nc2=O)N1 (stereo unspecified) | 10 |
| CC(C)n1c(=O)nc2n1C(=O)N(c1ccc(Cl)cc1)C2 | -21.8 |
| Cc1oc(-c2nc(C#N)c(NC(C)C)o2)cc1S(=O)(=O)N1CCCC1 | -25.3 |
| O=C(c1cnc2ccc(F)cc2c1NCc1ccco1)N1CCCC1 | 28.7 |
| CCCN(CCC)c1ncc(S(=O)(=O)c2ccccc2)c(N)n1 | -15.1 |
| CCN(CC)c1ncc(S(=O)(=O)c2cccc(C)c2)c(N)n1 | 25.6 |
| Cc1ccc(-c2cc(C(=O)O)sn2)cc1 | -15.1 |
| Cc1c(C(=O)O)cnn1-c1ccc(-c2nc(C(C)(C)C)no2)cn1 | -8.45 |
| Cc1cccc(Cn2c(=O)[nH]c3csnc3c2=O)c1 | -4.48 |
| CCc1c(C)n(CCC#N)c2nc3ccccc3n2c1=O | -9.18 |
| COc1ccc(-c2nnsc2C(=O)N2CCOCC2)cc1 | -11.2 |
| CC1(C)CC(=O)c2cnc3nc(N4CCOCC4)nc(O)c3c2C1 | -1.04 |
| COc1ccccc1C1CC(=O)Nc2c1c(=O)[nH]n2C1CCCC1 (stereo unspecified) | -11.5 |
| CCOC(=O)CC(c1ccc(OC)c(OC)c1)c1c(O)n[nH]c1C (stereo unspecified) | -15.2 |
| COc1ccccc1C1SCC(=O)Nc2c1c(=O)[nH]n2C1CCCCC1 (stereo unspecified) | 20.9 |
| CC(C)(C)c1csc(CCNC(=O)C(c2ccccc2)n2cnnn2)n1 (stereo unspecified) | -0.915 |
| COc1cccc(-n2nc(C(C)=O)c(C(C)=O)c2C)c1 | -15.4 |
| Cc1cs/c(=N\C(=O)Cn2nc(N3CCC(C)CC3)ccc2=O)[nH]1 | -9.83 |
| CNc1cncc(C2CCN(C(=O)c3coc(C)n3)CC2)n1 | 24.2 |
| CCC1CNCc2cc3c(OC)ccc(OC)c3nc2O1 (stereo unspecified) | 12.3 |

| Structure (SMILES) | cytotoxicity at 70.5 h [%] |
| --- | --- |
| Cc1cc(-c2ccc(=O)n(CCNC(=O)C3CC3)n2)c(C)o1 | 0.992 |
| CN1CCN([C@@H]2CN(C(=O)c3cc4cccc(F)c4[nH]3)C[C@H]2O)CC1 | -1.94 |
| COCC(=O)N1Cc2nc3c(C)c(-c4cccs4)nn3c(O)c2C1 | -0.72 |
| COCCNC(=O)C(C)n1nc(-c2ccc(C)o2)cc(N)c1=O (stereo unspecified) | 39.4 |
| Cc1cc2c(cc1Cl)C=CC1(CCN(CC(=O)N3CCOCC3)CC1)O2 | 25.7 |
| COc1ccc(C(C)N(C)Cc2c(C(C)(C)C)[nH]c3ncccc23)cc1 (stereo unspecified) | 12.9 |
| CO[C@H]1CN(C(=O)c2cn3cc(C)ccc3n2)CC[C@@]12CCCO2 | -17.2 |
| CNC(=O)CCc1cc(C2CCCN2S(C)(=O)=O)nc(C)n1 (stereo unspecified) | -12.2 |
| c1ccc(CO[C@H]2CN(c3ncccn3)C[C@@]23CCCO3)cc1 | -11.5 |
| CN1CCCC1c1ccc(N2CCOCC2)cn1 (stereo unspecified) | -16.8 |
| CCN(CC)S(=O)(=O)N1CCCC1c1nnc2n1CCN(C)CC2 (stereo unspecified) | -10.9 |
| CN1C[C@H](c2ccccc2)[C@H]2CN(C(=O)Cc3ccc(O)cc3)CC[C@H]21 | 22.7 |
| Cc1ccc(-c2noc(C3CCN3C(=O)c3ccc(=O)[nH]n3)n2)s1 (stereo unspecified) | -4.22 |
| Cc1ccc(-c2noc(C3CCN3C(=O)c3cc[nH]n3)n2)s1 (stereo unspecified) | -14.3 |
| CC(=O)N[C@H]1CCO[C@@H](c2cccc(NC(=O)c3cccc(F)c3)c2)C1 | -8.41 |
| CN(C)C(=O)CN1CCC(c2c(C(N)=O)sc3ncccc23)C1 (stereo unspecified) | -5.25 |
| CN(C)S(=O)(=O)N1CCCC(c2nccnc2-c2cccc(Cl)c2)C1 (stereo unspecified) | -1.8 |
| Cn1cccc1C(=O)NCc1ccnc(C2CCCOC2)n1 (stereo unspecified) | -4.4 |
| O=C(CCc1ccc(Cl)cc1)N[C@@H]1CC[C@@H](O)[C@@H]1O | -6.03 |
| c1ccc(C2Cn3ccnc3CN2Cc2ncc[nH]2)cc1 (stereo unspecified) | -1.58 |
| Cc1cc(-c2cc3nc(C)c(C)c(NCC4COCCO4)n3n2)no1 (stereo unspecified) | -5.97 |
| O=C(c1cccnc1)N1CCOC(Cc2ccccc2Cl)C1 (stereo unspecified) | 0.0235 |
| Cn1ccc(C(=O)N2CCC(Cc3ccc4ncccc4c3)CC2)n1 | 14.8 |

| Structure (SMILES) | cytotoxicity at 70.5 h [%] |
| --- | --- |
| OCCc1cc(C2CCCN2c2ncccn2)n[nH]1 (stereo unspecified) | -2.35 |
| Cc1ccnc(C2COCCN2C)n1 (stereo unspecified) | -3.5 |
| COc1ccc(CCC2CCCCN2)cc1 (stereo unspecified) | 24.2 |
| CSCC[C@H](N)c1nnc(SCc2cc(C)ccc2C)o1 | -5.14 |
| COc1ccc(CNCC(C)Oc2ccccn2)cc1Cl (stereo unspecified) | -8.86 |
| Cc1ccc(CNCC(C)Oc2ccccn2)cc1 (stereo unspecified) | -33.7 |
| CC(CNCc1ccc(Br)cc1)Oc1ccccn1 (stereo unspecified) | 2.54 |
| CCC(=O)N1C[C@@H](C(=O)NC)[C@H](c2ccnc(N3CCCC3)n2)C1 | -3.94 |
| Cc1cccc(COC2COC3(CCN(S(C)(=O)=O)CC3)C2)n1 (stereo unspecified) | -0.691 |
| CC1CCN(C(=O)[C@@H]2C[C@@H]3CCN(CC4CCOCC4)C[C@@H]3O2)CC1 | -7.26 |
| CC1CCN(C(=O)[C@H]2C[C@@H]3CCN(CC4CCOCC4)C[C@H]3O2)CC1 | -6.03 |
| CC(C)N(C)Cc1cnc2n1CCN(C(=O)Cc1cccs1)C2C (stereo unspecified) | -6.21 |
| CCOCc1cnc2n1CCN(C(=O)Cc1ccccn1)C2C (stereo unspecified) | -5.89 |
| Cc1ccc(CN2CC[C@H]3[C@H]2CCN3S(=O)(=O)C2CC2)s1 | -5.12 |
| Cc1ccc(CN2CC[C@H]3[C@H]2CCN3S(C)(=O)=O)s1 | -6.63 |
| C[C@@H]1CN(C(=O)C2CCOCC2)C[C@]12CCN(c1cccnc1)C2=O | -6.64 |
| CC(C)N1CCC2(CC1)CC(CC(N)=O)c1ccc(F)cc12 (stereo unspecified) | -5.38 |
| CN1CCCN(C(=O)c2cc(-c3cc[nH]n3)n3ccccc23)CC1 | -1.54 |
| CN1CCN(C(=O)[C@@H]2CC[C@@H]3[C@@H](CCN3c3ncccn3)O2)CC1 | -7.39 |
